EC50 data for 23 compounds are collected here from US9067898B1, “Isothiazole derivatives as GPR120 agonists for the treatment of type II diabetes” (Janssen Pharmaceutica NV, priority 2014, dated 2015).

pEC50: −log10 of the molar value.

Experiment [1] addresses T1, long form of human GPR120 (Homo sapiens, UniProt Q5NUL3).
T1 construct: host or cells: PathHunter CHO-K1 GPR120 β-Arrestin Cell Line
The experiment can be described thus: Human GPR120 DiscoveRx PathHunter Beta-Arrestin assay, Procedure β-arrestin A. In kind it is cell-based. Conditions: PathHunter CHO-K1 GPR120 β-Arrestin cell line, 3000 cells per well, read-out: hGPR120 β-arrestin A EC50. In short, it runs like this: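 PathHunter CHO-K1 β-arrestin cells expressed long-form GPR120 (Procedure A, 3000 cells/well) or short-form GPR120 (Procedure B, 5000 cells/well). Compounds were serially diluted from 25 µM and incubated 90 min at 37 °C in HBSS/20 mM HEPES/0.1% BSA, pH 7.4. Luminescence was read after 60 min detection at RT; EC50 comes from % activity versus positive control, Hill slope fixed at 1.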

The target of another experiment is T2, Human GPR120 short form (Homo sapiens, UniProt Q5NUL3).
T2 construct: expressed in transfected cells
T2 sequence (Q5NUL3 1-361): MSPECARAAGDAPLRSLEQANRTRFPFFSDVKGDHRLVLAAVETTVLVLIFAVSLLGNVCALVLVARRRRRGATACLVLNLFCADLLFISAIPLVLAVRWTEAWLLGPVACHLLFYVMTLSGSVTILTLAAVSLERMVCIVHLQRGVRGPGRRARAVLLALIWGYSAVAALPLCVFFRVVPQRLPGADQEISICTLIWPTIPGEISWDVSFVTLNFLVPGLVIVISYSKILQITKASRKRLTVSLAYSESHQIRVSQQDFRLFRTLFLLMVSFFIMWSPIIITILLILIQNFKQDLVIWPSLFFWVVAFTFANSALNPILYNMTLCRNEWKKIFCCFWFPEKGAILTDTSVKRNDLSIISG
The experiment in a line: Human GPR120 calcium flux assay (FLIPR), Procedure Calcium A. The format is cell-based. Conditions: HEK-293 cells expressing human GPR120 short form, 2500 cells/well; read-out: GPR120 Ca2+ Assay A EC50. In short, it runs like this: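 HEK293 cells stably expressing the short isoform (NM_001195755.1), 2500/well, starved 1 h, then loaded with Fluo-4 NW plus probenecid (30 min 37 °C, 15 min RT). Compound solutions 0.012–100 μM, 0.2% DMSO final; FLIPR read 300 s after addition. EC50 from Fmax−Fmin fitted to variable-slope sigmoid (Hill <2).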
(Calcium assays in cells follow changes in intracellular calcium, usually with a dye or a luminescent sensor.)

T1 sequence (Q5NUL3 1-377 isoform Q5NUL3-1): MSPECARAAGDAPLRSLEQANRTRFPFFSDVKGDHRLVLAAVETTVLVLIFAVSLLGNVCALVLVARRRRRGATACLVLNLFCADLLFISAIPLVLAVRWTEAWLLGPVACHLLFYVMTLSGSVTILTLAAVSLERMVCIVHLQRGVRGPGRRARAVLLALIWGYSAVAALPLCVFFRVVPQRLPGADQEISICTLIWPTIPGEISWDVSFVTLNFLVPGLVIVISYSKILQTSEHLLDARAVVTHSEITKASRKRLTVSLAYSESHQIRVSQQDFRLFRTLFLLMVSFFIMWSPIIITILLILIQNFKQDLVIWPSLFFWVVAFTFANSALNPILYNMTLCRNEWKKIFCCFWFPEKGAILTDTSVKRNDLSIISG
T1 sequence (P32121 whole entry partner): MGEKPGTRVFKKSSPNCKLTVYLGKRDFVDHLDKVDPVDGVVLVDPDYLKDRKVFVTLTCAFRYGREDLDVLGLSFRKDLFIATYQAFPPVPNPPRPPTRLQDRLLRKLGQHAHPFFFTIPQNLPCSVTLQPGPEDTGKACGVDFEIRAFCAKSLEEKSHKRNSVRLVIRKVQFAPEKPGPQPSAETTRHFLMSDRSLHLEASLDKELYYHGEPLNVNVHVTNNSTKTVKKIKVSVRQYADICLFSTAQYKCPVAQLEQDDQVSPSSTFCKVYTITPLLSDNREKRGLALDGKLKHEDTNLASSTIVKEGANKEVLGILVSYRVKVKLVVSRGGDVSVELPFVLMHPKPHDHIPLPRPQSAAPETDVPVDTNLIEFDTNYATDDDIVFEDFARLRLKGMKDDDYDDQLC

For the compound `CCc1ccc(-c2snc(Cl)c2COc2c(F)cc(CCCO)c(F)c2F)cc1` [Cpd 140, 3-(4-((3-chloro-5-(4-ethylphenyl)isothiazol-4-yl)methoxy)-2,3,5-trifluorophenyl)propan-1-ol], the pEC50 is 7.17 in experiment [1] and 6.86 on Human GPR120 short form.
`OCCCc1cc(F)c(OCc2c(C3CCCC3)nsc2C(F)(F)F)c(F)c1` [Cpd 141, 3-(4-[[3-cyclopentyl-5-(trifluoromethyl)-1,2-thiazol-4-yl]methoxy]-3,5-difluorophenyl)propan-1-ol]: the negative logarithm of the EC50 (pEC50) in experiment [1] is 6.98; at Human GPR120 short form, 6.83.
For `Cc1cc(OCc2c(-c3ccc(Cl)c(F)c3)nsc2C(F)(F)F)c(F)cc1CCC(=O)O` [Cpd 148, 3-(4-((3-(4-chloro-3-fluorophenyl)-5-(trifluoromethyl)isothiazol-4-yl)methoxy)-5-fluoro-2-methylphenyl)propanoic acid], in that order: 6.62 and 6.78.
For `CCc1nsc(-c2ccc(C)cc2F)c1COc1c(F)cc(CCC(=O)O)cc1F` [Cpd 150, 3-(4-[[3-ethyl-5-(2-fluoro-4-methylphenyl)-1,2-thiazol-4-yl]methoxy]-3,5-difluorophenyl)propanoic acid], in that order: 6.62 and 6.78.
As to `Cc1c(CCC(=O)O)ccc(OCc2c(Cl)nsc2-c2ccc(F)cc2)c1C` [Cpd 154, 3-(4-[[3-chloro-5-(4-fluorophenyl)-1,2-thiazol-4-yl]methoxy]-2,3-dimethylphenyl)propanoic acid], the pEC50 in experiment [1] was 6.37; at Human GPR120 short form it was 6.75.
For `Cc1c(CCC(=O)O)ccc(OCc2c(Cl)nsc2-c2cccc(Cl)c2)c1C` [Cpd 156, 3-(4-[[3-chloro-5-(3-chlorophenyl)-1,2-thiazol-4-yl]methoxy]-2,3-dimethylphenyl)propanoic acid] the same measures were 6.43 and 6.73.
For `Cc1c(CCC(=O)O)ccc(OCc2csnc2-c2ccc(Cl)cc2)c1C` [Cpd 166, 3-(4-((3-(4-chlorophenyl)isothiazol-4-yl)methoxy)-2,3-dimethylphenyl)propanoic acid] the same measures were 5.87 and 6.66.
For `COc1ccc(-c2snc(Cl)c2COc2ccc(CCCO)c(F)c2F)cc1` [Cpd 168, 3-(4-[[3-chloro-5-(4-methoxyphenyl)-1,2-thiazol-4-yl]methoxy]-2,3-difluorophenyl)propan-1-ol] the same measures were 6.49 and 6.65.
On to `O=C(O)CCc1cc(F)c(OCc2csnc2-c2ccc(Br)cc2)c(F)c1` [Cpd 169, 3-(4-((3-(4-bromophenyl)isothiazol-4-yl)methoxy)-3,5-difluorophenyl)propanoic acid], for which the results for the pEC50 (in experiment [1]; on Human GPR120 short form) were 6.31 and 6.65, respectively.
For `Cc1c(CCC(=O)O)ccc(OCc2csnc2-c2ccc(Br)cc2)c1C` [Cpd 170, 3-(4-((3-(4-bromophenyl)isothiazol-4-yl)methoxy)-2,3-dimethylphenyl)propanoic acid], in that order: 6.09 and 6.65.
For the compound `O=C(O)CCc1cc(F)c(OCc2csnc2-c2ccc(Cl)cc2)c(F)c1` [Cpd 179, 3-(4-((3-(4-chlorophenyl)isothiazol-4-yl)methoxy)-3,5-difluorophenyl)propanoic acid], the results for the pEC50 (in experiment [1]; on Human GPR120 short form) were 6.31 and 6.57, respectively.
For `CCc1ccc(-c2snc(Cl)c2COc2c(F)cc(CCCO)cc2F)cc1` [Cpd 183, 3-(4-[[3-chloro-5-(4-ethylphenyl)-1,2-thiazol-4-yl]methoxy]-3,5-difluorophenyl)propan-1-ol] the same measures were 7.28 and 6.52.
For `O=C(O)/C=C/c1ccc(OCc2c(Cl)nsc2-c2ccc(Cl)cc2)c(F)c1F` [Cpd 185, (E)-3-(4-((3-chloro-5-(4-chlorophenyl)isothiazol-4-yl)methoxy)-2,3-difluorophenyl)acrylic acid], in that order: 6.49 and 6.52.
On to `O=C(O)CCc1ccc(OCc2csnc2-c2ccc(Br)cc2)c(F)c1F` [Cpd 187, 3-(4-((3-(4-bromophenyl)isothiazol-4-yl)methoxy)-2,3-difluorophenyl)propanoic acid], for which the pEC50 is 6.05 in experiment [1] and 6.52 on Human GPR120 short form.
For `O=C(O)CCc1ccc(OCc2csnc2-c2ccc(Cl)cc2)c(F)c1F` [Cpd 189, 3-(4-((3-(4-chlorophenyl)isothiazol-4-yl)methoxy)-2,3-difluorophenyl)propanoic acid], in that order: 6.21 and 6.51.
For `Cc1c(CCC(=O)O)ccc(OCc2c(-c3ccc(C4CC4)cc3)nsc2C(F)(F)F)c1C` [Cpd 190, 3-(4-((3-(4-cyclopropylphenyl)-5-(trifluoromethyl)isothiazol-4-yl)methoxy)-2,3-dimethylphenyl)propanoic acid], in that order: 6.42 and 6.50.
As to `O=C(O)/C=C/c1cc(F)c(OCc2c(-c3ccc(Cl)cc3)nsc2C(F)(F)F)c(F)c1` [Cpd 201, (E)-3-(4-((3-(4-chlorophenyl)-5-(trifluoromethyl)isothiazol-4-yl)methoxy)-3,5-difluorophenyl)acrylic acid], the figures for the pEC50 (in experiment [1]; on Human GPR120 short form) were 6.47 and 6.34, respectively.
For `Cc1cc(OCc2c(-c3ncc(Cl)cc3F)nsc2C(F)(F)F)c(F)cc1CCC(=O)O` [Cpd 206, 3-(4-((3-(5-chloro-3-fluoropyridin-2-yl)-5-(trifluoromethyl)isothiazol-4-yl)methoxy)-5-fluoro-2-methylphenyl)propanoic acid], in that order: 6.27 and 6.26.
For `CCc1ccc(-c2snc(Cl)c2COc2ccc(CCCO)c(C)c2C)cc1` [Cpd 209, 3-(4-((3-chloro-5-(4-ethylphenyl)isothiazol-4-yl)methoxy)-2,3-dimethylphenyl)propan-1-ol], in that order: 6.64 and 6.24.
For `CCc1ccc(-c2nsc(C(F)(F)F)c2COc2c(F)cc(CC(C)CO)cc2F)cc1` (stereo not shown) [Cpd 216, 3-(4-[[3-(4-ethylphenyl)-5-(trifluoromethyl)-1,2-thiazol-4-yl]methoxy]-3,5-difluorophenyl)-2-methylpropan-1-ol], in that order: 6.33 and 6.17.
`Cc1c(CCCO)cc(F)c(OCc2c(-c3ccc(Cl)cc3)nsc2C(F)(F)F)c1F` [Cpd 223, 3-(4-((3-(4-chlorophenyl)-5-(trifluoromethyl)isothiazol-4-yl)methoxy)-3,5-difluoro-2-methylphenyl)propan-1-ol]: the pEC50 is 6.74 in experiment [1] and 6.11 on Human GPR120 short form.
For `CC(CO)Cc1cc(F)c(OCc2c(-c3ccc(Cl)cc3)nsc2C(F)(F)F)c(F)c1` (stereo not shown) [Cpd 230, 3-(4-[[3-(4-chlorophenyl)-5-(trifluoromethyl)-1,2-thiazol-4-yl]methoxy]-3,5-difluorophenyl)-2-methylpropan-1-ol] the same measures were 6.32 and 5.99.
For `Cc1c(CCC(=O)O)cc(F)c(OCc2csnc2-c2ccc(Cl)cc2)c1F` [Cpd 231, 3-(4-((3-(4-chlorophenyl)isothiazol-4-yl)methoxy)-3,5-difluoro-2-methylphenyl)propanoic acid], in that order: 6.02 and 5.99.

A word on the pEC50: it is the negative decadic logarithm of the EC50, by convention in mol/L.
